# Reference: patent publication US20180231561A1, “METHODS FOR TREATING SOLID TUMORS AND THE USE OF BIOMARKERS AS A PREDICTOR OF CLINICAL SENSITIVITY TO IMMUNOMODULATORY THERAPIES” (CELGENE CORPORATION, priority 2015, published 2018)
# “Also recorded” adds a separate entry of the source. Where a SMILES comes first, the peptide text is derived from it. The star is where a group is joined. Cbz = O=C(OCc1ccccc1)*
# What was measured:
# FOCUS cell line = test: Proteomic screening in FOCUS cell line under 3D culture; assay type: cell-based; settings: 3D conditions
# Description: (§1) Both HCC cells, Focus and JHH4 in 3D setting, were cultured continuously for 15 days treated with either DMSO or Compound A, or were first cultured for about 7 days prior to treatment with either DMSO or Compound A for 24 hours or 72 hours. Cells were harvested and proteins were prepared from the cells for proteomics analysis. The growth of the cells on control plates was also analyzed. In particular, cells were plated in media containing either DMSO or Compound A. Cells were cultured for certain time, and then were harvested onto filter plates. After the plates have dried, scintillation fluid was added to the plates and read on a Top-count reader.
# [1] = test system: HCC xenografts (excised xenograft tumors of HAK-1AJ and Focus); test: Proteomic screening (TMT) of HCC xenografts treated with DMSO or Compound A; assay type: cell-based
# Description: HCC xenografts (excised xenograft tumors of HAK-1AJ and Focus) were treated with either with DMSO, or Compound A for either once (single) or multiple times. Cells were harvested at 24 or 72 hours time points, and proteins were fractionated using a basic pH reverse gradient method. Fractionated samples were labeled using a Tandem Mass Tag (TMT) method. Relative abundance was calculated.
# JHH4 cells = test: Colony growth on control plates, 3D JHH4 cells; assay type: cell-based; settings: 3D JHH4, control plates, vs DMSO
# ZFP91 [2] = test: Immunostaining of ZFP91 in U87 xenograft tissue; assay type: in vivo
# ZFP91 [3] = test: Western blot of ZFP91 protein level in HCC cell lines Focus and JHH4; assay type: cell-based; settings: for effect of the compound on ZFP91 after knocking down of CRBN: CRBN knockdown, Focus and JHH4 cells
# ZFP91 [4] = test: Western blot of ZFP91 level in Hep3B cells; assay type: cell-based, human
# Description: The change of ZFP91 level in response to Compound A or Compound B treatments was also evaluated in human hepatoma Hep3B cell lines. Hep3B cells were treated with Compound A or Compound B, and cells were harvested and treated in lysis buffer to generate cell lysate. Proteins from cell lysate were separated by electrophoresis gel and transferred to nitrocellulose membranes. Immunoblots were then probed with antibodies recognizing CRBN, ZFP91, and β-actin. Signals were detected with a Li-Cor Odyssey Imager. The results were shown in the upper panel of FIG. 6A. […] Thus, ZFP91 may be degraded in response treatment compounds regardless of growth response of the cells to the treatment compounds.
# JHH4 cell line = test: Proteomic screening in JHH4 cell line under 3D culture; assay type: cell-based
# Description: as §1
# [5] = test system: MST1R (RON), PARP4, MVP, ZFP91, IKBKE, PDE6D, CK1alpha, LGALS2, KAT1, GSPT1, CRBN; test: Western blot confirmation of proteins identified in the proteomic studies (FIG. 8); assay type: cell-based
# Excerpt: Representative proteins identified in the proteomic studies were confirmed in western blot analysis, such as those shown in FIG. 8.
# ZFP91 [6] = test: Western blot of ZFP91 level in glioblastoma cell lines U87 and SNB19; assay type: cell-based, human; settings: U87 and SNB19 cells
# Description: The change of ZFP91 level in response to treatment compounds was evaluated in other solid tumor cell lines, e.g., glioblastoma (GBM) cell lines. […] Proteins from cell lysate were separated by electrophoresis gel and transferred to nitrocellulose membranes. Immunoblots were then probed with antibodies recognizing ZFP91 and β-actin. Signals were detected with a Li-Cor Odyssey Imager.
# U87 tumor = test: U87 xenograft tumor growth; assay type: in vivo; settings: 3 and 30 mg/kg qd
# ZFP91 [7] = test: Western blot of ZFP91 protein level in HCC cell lines Focus and JHH4; assay type: cell-based; settings: for effect on Compound A-induced ZFP91 degradation: Focus and JHH4, 2D, 10 μM for 1 hour, then 5 μM Compound A for 6 hours
# Description: as §1
# Focus cells were cultured for 18 days either continuously for 18 days in the medium containing DMSO, Compound A, or Compound B, or cultured for 7 days prior to treating with DMSO, Compound A, or Compound B for 11 days. Then cells were harvested and were treated in 200 μl cold cell lysis buffer (1% Triton X-100 from Cell Signaling supplemented with protease inhibitors and phophatase inhibitors from Roche) to generate cell lysate. Proteins from cell lysate were separated by 4-12% nupage gels (Invitrogen) and transferred to nitrocellulose membranes. Immunoblots were then probed with antibodies recognizing CRBN, ZFP91 (LSBio) and β-actin (Li-Cor). Signals were detected with a Li-Cor Odyssey Imager. As shown, the level of ZFP91 reduced in response to treatment with Compound A or Compound B.
# (§2) HCC cells from both Focus and JHH4 cell lines in 2D setting treated with Compound A for 6 hours, 24 hours, and 72 hours, and JHH4 cells in 3D setting treated with Compound A for 15 days were also analyzed by western blot. Cells were harvested and were treated in 200 μl cold cell lysis buffer (1% Triton X-100 from Cell Signaling supplemented with protease inhibitors and phophatase inhibitors from Roche) to generate cell lysate. Proteins from cell lysate were separated by 4-12% Nupage gels (Invitrogen) and transferred to nitrocellulose membranes. Immunoblots were then probed with antibodies recognizing CRBN, ZFP91 (LSBio), P-TBK1, and β-actin (Li-Cor). Signals were detected with a Li-Cor Odyssey Imager. As shown, the level of ZFP91 reduced in response to treatment with Compound A for 6 hours, 24 hours, or 72 hours in both cell lines in 2D setting. […] The level of CRBN increased in response to treatment with Compound A for 6 hours, 24 hours, or 72 hours in both cell lines in 2D setting. […] ZFP91 degradation induced by various doses of Compound A for various time periods was also tested in both Focus and JHH4 cells, as shown in FIG. 4C.
# HCC cells from both Focus and JHH4 cell lines in 2D setting were first treated with 10 μM MG132 or MLN4924 for 1 hour, and then were treated with 5 μM DMSO or 5 μM Compound A for 6 hours. Cells were harvested and were treated in cell lysis buffer to generate cell lysate. Proteins from cell lysate were separated by gel electrophoresis and transferred to nitrocellulose membranes. Immunoblots were then probed with antibodies recognizing CRBN, ZFP91 (LSBio), and β-actin (Li-Cor). The results were shown in FIG. 5A, and as shown, both […] or MLN4924 inhibited ZFP91 degradation. MG132 activates c-Jun N-terminal kinase (JNK1), which initiates apoptosis. […] MLN4924 is a NAE1 inhibitor that blocks the activity of Cullin Ring Ligases (CRLs), such as CRL4CRBN.
# Focus cells = test: Colony growth on control plates, 3D Focus cells; assay type: cell-based; settings: vs DMSO
# CRBN [8] = test: Western blot of CRBN protein level in HCC cell lines Focus and JHH4; assay type: cell-based
# Description: as §2, with “Both HCC cells, Focus and JHH4 in 3D setting, were cultured continuously for 15 days treated with either DMSO or Compound A, or were first cultured for about 7 days prior to treatment with either DMSO or Compound A for 24 hours or 72 hours. Cells were harvested and proteins were prepared from the cells for proteomics analysis. The growth of the cells on control plates was also analyzed. In particular, cells were plated in media containing either DMSO or Compound A. Cells were cultured for certain time, and then were harvested onto filter plates. After the plates have dried, scintillation fluid was added to the plates and read on a Top-count reader. HCC” for “HCC”
# Hep3B cells = test: Growth response of Hep3B cells to treatment compounds (FIG. 6B); assay type: cell-based, human
# P-TBK1 = test: Western blot of P-TBK1 in HCC cells; assay type: cell-based; settings: 3D setting
# Description: as §2
# NF-κB = settings: read-out: IC50 NF-κB activation; cited from earlier work
# CRBN [9] = target: CRBN (Homo sapiens, UniProt Q96SW2); settings: in vitro; cited from earlier work
# CRBN (Homo sapiens, UniProt Q96SW2), sequence (Q96SW2 whole entry, species assumed): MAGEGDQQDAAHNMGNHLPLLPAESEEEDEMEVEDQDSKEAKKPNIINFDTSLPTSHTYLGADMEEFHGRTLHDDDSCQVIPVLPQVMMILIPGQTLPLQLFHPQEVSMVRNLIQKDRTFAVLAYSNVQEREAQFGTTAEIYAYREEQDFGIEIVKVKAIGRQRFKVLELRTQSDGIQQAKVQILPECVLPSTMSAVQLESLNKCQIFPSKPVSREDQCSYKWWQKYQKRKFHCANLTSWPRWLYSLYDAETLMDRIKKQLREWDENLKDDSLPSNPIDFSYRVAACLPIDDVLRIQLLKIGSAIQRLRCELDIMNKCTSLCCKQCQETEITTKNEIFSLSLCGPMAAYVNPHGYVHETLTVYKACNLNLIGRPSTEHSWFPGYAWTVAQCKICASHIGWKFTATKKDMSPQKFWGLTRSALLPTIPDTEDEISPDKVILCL
# CRBN (Homo sapiens, UniProt Q96SW2), sequence (Q16531 whole entry partner, species assumed): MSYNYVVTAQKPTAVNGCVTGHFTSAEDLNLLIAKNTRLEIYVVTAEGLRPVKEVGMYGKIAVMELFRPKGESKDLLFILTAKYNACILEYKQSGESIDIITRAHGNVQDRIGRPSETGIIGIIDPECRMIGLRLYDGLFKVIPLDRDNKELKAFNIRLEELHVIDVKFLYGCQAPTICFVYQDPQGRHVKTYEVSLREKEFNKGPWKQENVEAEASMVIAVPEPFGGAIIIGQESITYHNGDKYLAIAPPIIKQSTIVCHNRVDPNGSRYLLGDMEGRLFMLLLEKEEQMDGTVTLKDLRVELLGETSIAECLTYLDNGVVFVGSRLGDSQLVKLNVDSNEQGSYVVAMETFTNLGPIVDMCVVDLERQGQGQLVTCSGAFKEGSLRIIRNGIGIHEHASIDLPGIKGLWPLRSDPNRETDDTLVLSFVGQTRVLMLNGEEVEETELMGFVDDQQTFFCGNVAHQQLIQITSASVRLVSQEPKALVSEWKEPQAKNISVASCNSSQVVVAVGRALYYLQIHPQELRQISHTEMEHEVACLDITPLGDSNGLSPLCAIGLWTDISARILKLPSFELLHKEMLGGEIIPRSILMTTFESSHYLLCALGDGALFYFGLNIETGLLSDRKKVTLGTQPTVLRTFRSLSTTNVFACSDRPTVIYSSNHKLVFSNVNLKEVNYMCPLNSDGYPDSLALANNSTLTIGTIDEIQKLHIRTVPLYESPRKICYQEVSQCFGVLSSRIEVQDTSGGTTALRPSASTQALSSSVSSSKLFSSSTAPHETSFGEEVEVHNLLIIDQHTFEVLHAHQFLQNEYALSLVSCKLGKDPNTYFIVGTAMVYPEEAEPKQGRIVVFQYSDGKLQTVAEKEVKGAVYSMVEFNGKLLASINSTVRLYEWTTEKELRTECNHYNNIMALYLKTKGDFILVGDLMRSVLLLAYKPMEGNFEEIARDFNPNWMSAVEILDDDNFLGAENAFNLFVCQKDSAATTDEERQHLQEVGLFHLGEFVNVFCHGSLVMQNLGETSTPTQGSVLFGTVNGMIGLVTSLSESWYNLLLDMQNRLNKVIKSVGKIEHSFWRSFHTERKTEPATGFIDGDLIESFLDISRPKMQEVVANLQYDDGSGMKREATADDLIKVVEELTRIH
# CRBN (Homo sapiens, UniProt Q96SW2), sequence (Q13619 whole entry partner, species assumed): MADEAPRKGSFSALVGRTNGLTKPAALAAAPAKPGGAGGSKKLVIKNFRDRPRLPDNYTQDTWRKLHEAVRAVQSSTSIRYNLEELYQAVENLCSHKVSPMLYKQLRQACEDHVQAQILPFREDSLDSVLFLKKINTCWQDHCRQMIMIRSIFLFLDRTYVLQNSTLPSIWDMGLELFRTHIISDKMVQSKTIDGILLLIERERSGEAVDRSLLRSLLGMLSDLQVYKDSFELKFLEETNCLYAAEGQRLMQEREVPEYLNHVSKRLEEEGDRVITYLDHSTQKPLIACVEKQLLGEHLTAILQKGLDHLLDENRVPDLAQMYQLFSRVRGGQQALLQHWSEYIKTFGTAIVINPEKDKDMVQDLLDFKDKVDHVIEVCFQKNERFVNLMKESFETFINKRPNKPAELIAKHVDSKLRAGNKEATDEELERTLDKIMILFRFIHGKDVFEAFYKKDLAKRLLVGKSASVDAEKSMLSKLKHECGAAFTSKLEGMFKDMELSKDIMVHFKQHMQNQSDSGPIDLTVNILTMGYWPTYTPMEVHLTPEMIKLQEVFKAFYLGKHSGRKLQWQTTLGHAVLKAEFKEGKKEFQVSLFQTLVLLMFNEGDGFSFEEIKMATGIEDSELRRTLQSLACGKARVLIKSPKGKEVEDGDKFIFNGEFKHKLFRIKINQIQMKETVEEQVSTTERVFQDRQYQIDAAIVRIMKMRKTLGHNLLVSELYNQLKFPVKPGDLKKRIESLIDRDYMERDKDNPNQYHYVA
# CRBN (Homo sapiens, UniProt Q96SW2), sequence (P62877 whole entry partner, species assumed): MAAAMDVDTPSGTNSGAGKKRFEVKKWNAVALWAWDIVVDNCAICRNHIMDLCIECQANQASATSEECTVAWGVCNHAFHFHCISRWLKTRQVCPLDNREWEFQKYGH
# [10] = Focus and JHH4, 2D setting, 6 hours, 24 hours or 72 hours
# [11] = Focus and JHH4, 3D, control plate and proteomic preparation, beta-actin control
# [12] = Focus cells, 18 days continuous, or 7 days culture then 11 days treatment
structure (smiles),measurement,setting,value
"Cc1nc2cccc(N)c2c(=O)n1C1CCC(=O)NC1=O (centres unmarked) [Compound A, 3-(5-amino-2-methyl-4-oxo-4H-quinazolin-3-yl)-piperidine-2,6-dione]",regulation of the proteins listed in Table 4,FOCUS cell line,upregulated
same,regulation of the proteins listed in Table 6,FOCUS cell line,downregulated
same,proteins commonly differentially abundant after treatment,"[1]; 24 hours after treatment, both Focus and HAK-1AJ, compared with DMSO","WIBG, KAT1, Nestin, PARP4, and MVP"
same,proteins downregulated in response to treatment,[1]; proteomic screening study,"MVP, PARP4, ZFP91, and ZNF198"
same,proteins upregulated in response to treatment,[1]; proteomic screening study,"Nestin, KAT1/CCBL1, and WIBG; also recorded: Nestin, KAT1/CCBL1, WIBG, CK1-alpha, GSPT1"
same,colony number,JHH4 cells,reduced
same,total colony area,JHH4 cells,reduced
same,ZFP91 in U87 xenograft tissue,ZFP91 [2],degrades
same,effect of the compound on ZFP91 after knocking down of CRBN,ZFP91 [3],reversed
same,level of ZFP91 under protein synthesis inhibition,ZFP91 [3]; Focus and JHH4 cells treated with 100 ug/ml cycloheximide (CHX),decreased; also recorded: accelerates
same,ZFP91 level,ZFP91 [4],down-regulated
same,regulation of the proteins listed in Table 5,"JHH4 cell line; JHH4, 3D conditions",downregulated
same,regulation of the proteins listed in Table 3,"JHH4 cell line; JHH4, 3D culture, basement membrane extracellular matrix",upregulated
same,proteins whose levels increased in response to treatment,[5],"CK1alpha, LGALS2, KAT1, GSPT1 as well as CRBN"
same,proteins whose levels reduced in response to treatment,[5],"MST1R (RON), RARP4, MVP, ZFP91, IKBKE, PDE6D"
same,ZFP91 level,ZFP91 [6],down-regulated
same,U87 tumor growth,U87 tumor,significantly inhibits
same,level of ZFP91,ZFP91 [7]; [10],reduces
same,level of ZFP91 protein,ZFP91 [7]; [11],reduced
same,level of ZFP91,ZFP91 [7]; [12],reduces
same,level of ZFP91,"ZFP91 [7]; JHH4, 3D setting, 15 days",reduced
same,colony number,Focus cells,reduced
same,total colony area,Focus cells,reduced
same,level of CRBN,CRBN [8]; [10],increases
same,level of CRBN protein,CRBN [8]; [11],increased
same,level of CRBN,"CRBN [8]; JHH4, 3D setting, 15 days",increased
same,sensitivity of Hep3B cells to the compound,Hep3B cells,not
same,P-TBK1 level,P-TBK1,upregulated
"O=C1CCC(N2Cc3c(OCc4ccc(CN5CCOCC5)cc4)cccc3C2=O)C(=O)N1 (centres unmarked) [Compound B, 3-[4-(4-Morpholin-4-ylmethyl-benzyloxy)-1-oxo-1,3-dihydro-isoindol-2-yl]-piperidine-2,6-dione]",effect of the compound on ZFP91 after knocking down of CRBN,ZFP91 [3],reversed
same,ZFP91 level,ZFP91 [4],down-regulated
same,level of ZFP91,ZFP91 [7]; [12],reduces
same,sensitivity of Hep3B cells to the compound,Hep3B cells,sensitive
"CC(C)C[C@@H](C=O)NC(=O)[C@H](CC(C)C)NC(=O)[C@H](CC(C)C)NC(=O)OCc1ccccc1 [MG132, reference compound] (Cbz-Leu-Leu-Leu-aldehyde)",IC50,NF-κB,3000 nM
same,effect on reduction of ZFP91 by Compound A or Compound B,ZFP91 [4],blocked
same,effect on reduction of ZFP91 by treatment compounds,ZFP91 [6],blocked
same,effect on Compound A-induced ZFP91 degradation,ZFP91 [7],inhibited; also recorded: block
"NS(=O)(=O)OC[C@@H]1C[C@@H](n2ccc3c(N[C@H]4CCc5ccccc54)ncnc32)C[C@@H]1O [MLN4924, reference compound]",effect on reduction of ZFP91 by Compound A or Compound B,ZFP91 [4],blocked
same,effect on reduction of ZFP91 by treatment compounds,ZFP91 [6],blocked
same,effect on Compound A-induced ZFP91 degradation,ZFP91 [7],inhibited
same,effect on Compound A-induced ZFP91 degradation,ZFP91 [7]; listed as MLN,block
"O=C1CCC(N2C(=O)c3ccccc3C2=O)C(=O)N1 (centres unmarked) [thalidomide, 2-(2,6-dioxopiperidin-3-yl)-1H-isoindole-1,3(2H)-dione]",auto-ubiquitination of CRBN,CRBN [9],inhibit
